Assay results taken from paper PMC9481570, “A small molecule antagonist of SMN disrupts the interaction between SMN and RNAP II” (Nature Communications, 2022).
“And” between values parts separate entries of the source, which are not always exact repeats. Equal entries are not always repeated.

Legend:
Test in all cases: Affinity-purification and mass spectrometry (AP-MS) chemical proteomics, all proteins;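 for Difference: 200 µM free competitor with 20 µM biotin probe overnight in lysate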
Type in all cases: binding
[1] = molecular target: T1, proteins displaced from immobilized biotin-Cmpd 1 pulldowns (U2OS cell lysate) (Homo sapiens, UniProt O60832); conditions: GN=DKC1 (O60832)
T1 construct: endogenous in cells; host or cells: U2OS
T1 sequence (O60832 whole entry): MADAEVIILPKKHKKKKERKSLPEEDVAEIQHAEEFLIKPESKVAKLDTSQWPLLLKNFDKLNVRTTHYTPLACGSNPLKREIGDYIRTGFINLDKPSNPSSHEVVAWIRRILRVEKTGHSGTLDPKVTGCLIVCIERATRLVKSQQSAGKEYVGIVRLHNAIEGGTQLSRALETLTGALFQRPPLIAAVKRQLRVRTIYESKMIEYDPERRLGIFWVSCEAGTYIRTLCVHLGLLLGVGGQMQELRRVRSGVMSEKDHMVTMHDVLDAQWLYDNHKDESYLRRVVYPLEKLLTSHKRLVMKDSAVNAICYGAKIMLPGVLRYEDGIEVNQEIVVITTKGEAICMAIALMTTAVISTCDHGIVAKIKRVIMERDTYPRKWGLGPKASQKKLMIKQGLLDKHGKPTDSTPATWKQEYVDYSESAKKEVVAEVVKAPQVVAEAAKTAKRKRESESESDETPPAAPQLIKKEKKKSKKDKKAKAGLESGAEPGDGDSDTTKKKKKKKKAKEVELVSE
Protocol: (§1) The samples for AP-MS were prepared following pulldown procedure as previously described with minor modifications. Briefly, U2OS cells were lysed in RIPA buffer and the cell lysate was equally divided into two groups: (1) DMSO group (control group): the cell lysate was incubated with 20 μM biotin-labeled compound 1; (2) Cpmd 1 group (sample group): the cell lysate was incubated with 20 μM biotin-labeled compound 1 and 200 μM free compound 1. Each group contains three biological replicates. They were incubated overnight at 4 °C, then 30 μL streptavidin beads (Thermo Fisher, 20353) was added and incubated at 4 °C for 1 h. The beads were then washed with RIPA buffer for 3 times, 10 min/time.
(§2) Beads were rinsed twice with 50 mM TEAB, pH 7.55, before eluting proteins with 25 μL of 5% SDS, 50 mM TEAB, pH 7.55. The sample was then centrifuged at 17,000 × g for 10 min to remove any debris. Proteins were reduced with 20 mM TCEP (Thermo Fisher, 77720) and incubated at 65 °C for 30 min. The sample was cooled to room temperature and 1 μL of 0.5 M iodoacetamide acid was added and allowed to react for 20 min in dark. Phosphoric acid (12%, 2.75 μL) was added to the protein solution, followed by adding 165 μL of binding buffer (90% methanol, 100 mM TEAB, pH 7.1). The resulting solution was added to S-Trap spin column (protifi.com) and passed through the column using a bench top centrifuge (30 s spin at 4000 × g). The spin column was washed with 400 μL of binding buffer and centrifuged. This step was repeated two more times. Then trypsin was added to the protein mixture at a mass ratio of 1:25 in 50 mM TEAB, pH 8.0, and the sample was incubated at 37 °C for 4 h. Peptides were eluted with 80 μL of 50 mM TEAB, followed by 80 μL of 0.2% formic acid, and finally 80 μL of 50% acetonitrile, 0.2% formic acid. The combined peptide solution was then dried in a speed vac and resuspended in 2% acetonitrile, 0.1% formic acid, 97.9% water and placed in an autosampler vial.
(§3) Samples were analyzed by nanoLC-MS/MS (nanoRSLC, Thermo Fisher) using an Aurora series (Ion Opticks) reversed phase HPLC column (25 cm length × 75 µm inner diameter) and directly injected to an Orbitrap Eclipse (Thermo Fisher) using a 120 min gradient (mobile phase A = 0.1% formic acid, mobile phase B = 99.9% acetonitrile with 0.1% formic acid; hold 2% B for 5 min, 2–6% B in 0.1 min, 6–25% in 100 min, 25–50% in 15 min) at a flow rate of 350 nL/min. Eluted peptide ions were analyzed using a data-dependent acquisition (DDA) method with resolution settings of 120,000 and 15,000 (at m/z 200) for MS1 and MS2 scans, respectively. DDA-selected peptides were fragmented using stepped high energy collisional dissociation (27, 32, and 37%).
(§4) The data of AP-MS were analyzed as a previously described method with minor modifications. Briefly, the raw MS files were searched with MaxQuant software (version 1.6.1.1, www.maxquant.org)[56] against the UniProt human protein database (www.uniprot.org) concatenated with common contaminants and the decoy database. The mass tolerance for precursor ions was set to 20 ppm and 4.5 ppm for the first and main search, respectively. The cysteine carbamidomethylation was set as fixed modification and methionine oxidation and N-terminal acetylation as variable modifications. Enzyme specificity was set to trypsin and a maximum missed cleavage was set as 2. The 1% false discovery rate (FDR) at both peptide and protein levels was applied for the analysis. Relative protein quantification was based on the label-free quantification incorporated in the MaxQuant software. The iBAQ intensity of proteins was obtained for the control and experimental samples. The missing iBAQ intensity was replaced by a random number, which was calculated from a normal distribution with a width of 0.3 and a downshift of 1.8 defined by Perseus software (version 1.6.5.0). The P-value was calculated by performing two-sample Student’s t-test. […]

[2] = molecular target: T2, proteins displaced from immobilized biotin-Cmpd 1 pulldowns (U2OS cell lysate) (Homo sapiens, UniProt Q9Y6M1); conditions: GN=IGF2BP2 (Q9Y6M1)
T2 construct: endogenous in cells; host or cells: U2OS
T2 sequence (Q9Y6M1 whole entry): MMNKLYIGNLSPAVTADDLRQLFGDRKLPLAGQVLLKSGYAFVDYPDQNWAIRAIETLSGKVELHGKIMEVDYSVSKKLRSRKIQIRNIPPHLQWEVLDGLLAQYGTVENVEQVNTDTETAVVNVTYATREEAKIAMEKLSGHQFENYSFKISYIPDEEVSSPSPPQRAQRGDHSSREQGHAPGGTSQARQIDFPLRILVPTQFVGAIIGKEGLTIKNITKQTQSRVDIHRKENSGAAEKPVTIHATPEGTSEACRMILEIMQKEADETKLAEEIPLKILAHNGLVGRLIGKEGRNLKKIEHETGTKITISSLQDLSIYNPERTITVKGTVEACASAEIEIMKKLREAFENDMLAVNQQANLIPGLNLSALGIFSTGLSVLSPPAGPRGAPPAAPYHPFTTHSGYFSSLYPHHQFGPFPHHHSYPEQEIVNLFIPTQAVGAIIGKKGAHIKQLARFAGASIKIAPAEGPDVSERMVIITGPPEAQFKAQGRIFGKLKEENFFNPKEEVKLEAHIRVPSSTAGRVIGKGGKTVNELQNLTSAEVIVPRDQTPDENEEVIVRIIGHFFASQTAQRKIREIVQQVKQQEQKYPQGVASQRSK
Protocol: as §1, §2, §3, §4

[3] = molecular target: T3, proteins displaced from immobilized biotin-Cmpd 1 pulldowns (U2OS cell lysate) (Homo sapiens, UniProt P22735); conditions: GN=TGM1 (P22735)
T3 construct: endogenous in cells; host or cells: U2OS
T3 sequence (P22735 whole entry): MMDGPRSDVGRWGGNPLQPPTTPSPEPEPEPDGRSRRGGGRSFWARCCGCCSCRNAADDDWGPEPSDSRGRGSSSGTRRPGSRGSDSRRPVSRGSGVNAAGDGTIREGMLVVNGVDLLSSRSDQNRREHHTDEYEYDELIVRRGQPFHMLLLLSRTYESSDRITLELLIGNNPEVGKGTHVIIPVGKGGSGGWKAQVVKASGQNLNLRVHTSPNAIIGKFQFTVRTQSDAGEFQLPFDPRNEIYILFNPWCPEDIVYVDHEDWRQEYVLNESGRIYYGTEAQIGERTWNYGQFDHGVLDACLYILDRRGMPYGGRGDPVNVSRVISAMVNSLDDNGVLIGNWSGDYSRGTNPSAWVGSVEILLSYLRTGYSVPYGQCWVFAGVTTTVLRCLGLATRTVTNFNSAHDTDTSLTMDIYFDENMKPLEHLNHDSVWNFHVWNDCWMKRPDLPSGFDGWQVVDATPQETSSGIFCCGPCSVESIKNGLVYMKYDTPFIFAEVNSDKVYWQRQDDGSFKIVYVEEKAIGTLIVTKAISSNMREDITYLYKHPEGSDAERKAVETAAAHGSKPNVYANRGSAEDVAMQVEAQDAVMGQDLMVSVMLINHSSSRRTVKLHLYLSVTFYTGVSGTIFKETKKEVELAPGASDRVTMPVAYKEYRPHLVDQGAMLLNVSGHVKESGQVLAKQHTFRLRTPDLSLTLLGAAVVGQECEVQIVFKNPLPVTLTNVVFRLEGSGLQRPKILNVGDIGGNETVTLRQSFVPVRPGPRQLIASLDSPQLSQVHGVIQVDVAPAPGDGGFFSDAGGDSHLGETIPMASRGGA
Protocol: as §1, §2, §3, §4

[4] = molecular target: T4, proteins displaced from immobilized biotin-Cmpd 1 pulldowns (U2OS cell lysate) (Homo sapiens, UniProt Q13601); conditions: GN=KRR1 (Q13601)
T4 construct: endogenous in cells; host or cells: U2OS
T4 sequence (Q13601 whole entry): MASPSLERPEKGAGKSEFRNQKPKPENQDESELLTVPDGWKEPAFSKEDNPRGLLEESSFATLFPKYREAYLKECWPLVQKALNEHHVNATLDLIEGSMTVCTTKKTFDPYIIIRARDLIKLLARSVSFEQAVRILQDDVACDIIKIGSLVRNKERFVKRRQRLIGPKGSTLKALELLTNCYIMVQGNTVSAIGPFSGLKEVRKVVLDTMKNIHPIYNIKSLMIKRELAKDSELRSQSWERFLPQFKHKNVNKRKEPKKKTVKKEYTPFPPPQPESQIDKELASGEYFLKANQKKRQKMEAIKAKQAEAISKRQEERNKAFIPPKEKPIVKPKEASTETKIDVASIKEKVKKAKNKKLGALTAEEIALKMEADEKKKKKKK
Protocol: as §1, §2, §3, §4

[5] = molecular target: T5, proteins displaced from immobilized biotin-Cmpd 1 pulldowns (U2OS cell lysate) (Homo sapiens, UniProt P46783); conditions: GN=RPS10 (P46783)
T5 construct: endogenous in cells; host or cells: U2OS
Protocol: as §1, §2, §3, §4

[6] = molecular target: T6, proteins displaced from immobilized biotin-Cmpd 1 pulldowns (U2OS cell lysate) (Homo sapiens, UniProt Q9BZG1); conditions: GN=RAB34 (Q9BZG1)
T6 construct: endogenous in cells; host or cells: U2OS
T6 sequence (Q9BZG1 whole entry): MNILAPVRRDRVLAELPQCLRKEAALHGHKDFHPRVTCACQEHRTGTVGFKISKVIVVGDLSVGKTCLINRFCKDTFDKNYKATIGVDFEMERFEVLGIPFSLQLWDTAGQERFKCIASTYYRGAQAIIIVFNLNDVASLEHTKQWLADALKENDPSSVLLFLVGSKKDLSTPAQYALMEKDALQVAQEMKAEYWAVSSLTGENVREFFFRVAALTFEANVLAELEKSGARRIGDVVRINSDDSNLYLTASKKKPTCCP
Protocol: as §1, §2, §3, §4

[7] = molecular target: T7, proteins displaced from immobilized biotin-Cmpd 1 pulldowns (U2OS cell lysate) (Homo sapiens, UniProt Q9UH17); conditions: GN=APOBEC3B (Q9UH17)
T7 construct: endogenous in cells; host or cells: U2OS
T7 sequence (Q9UH17 whole entry): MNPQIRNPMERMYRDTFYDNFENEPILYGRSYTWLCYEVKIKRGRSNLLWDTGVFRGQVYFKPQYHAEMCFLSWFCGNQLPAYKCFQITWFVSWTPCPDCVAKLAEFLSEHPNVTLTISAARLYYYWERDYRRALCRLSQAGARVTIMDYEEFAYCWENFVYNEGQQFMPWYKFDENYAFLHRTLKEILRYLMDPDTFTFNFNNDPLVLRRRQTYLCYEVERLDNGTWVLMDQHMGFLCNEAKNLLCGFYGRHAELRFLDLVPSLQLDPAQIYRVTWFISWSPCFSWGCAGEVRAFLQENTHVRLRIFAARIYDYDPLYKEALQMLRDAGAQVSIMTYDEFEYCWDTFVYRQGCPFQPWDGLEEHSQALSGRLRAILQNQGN
Protocol: as §1, §2, §3, §4

[8] = molecular target: T8, proteins displaced from immobilized biotin-Cmpd 1 pulldowns (U2OS cell lysate) (Homo sapiens, UniProt P30048); conditions: GN=PRDX3 (P30048)
T8 construct: endogenous in cells; host or cells: U2OS
T8 sequence (P30048 62-256): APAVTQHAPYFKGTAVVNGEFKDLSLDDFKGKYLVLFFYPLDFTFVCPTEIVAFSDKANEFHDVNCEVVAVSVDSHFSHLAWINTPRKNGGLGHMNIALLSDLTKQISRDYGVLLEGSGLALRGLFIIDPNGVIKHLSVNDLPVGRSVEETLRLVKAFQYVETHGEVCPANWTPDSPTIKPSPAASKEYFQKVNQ
Protocol: as §1, §2, §3, §4

[9] = molecular target: T9, proteins displaced from immobilized biotin-Cmpd 1 pulldowns (U2OS cell lysate) (Homo sapiens, UniProt P25789); conditions: GN=PSMA4 (P25789)
T9 construct: endogenous in cells; host or cells: U2OS
T9 sequence (P25789 whole entry): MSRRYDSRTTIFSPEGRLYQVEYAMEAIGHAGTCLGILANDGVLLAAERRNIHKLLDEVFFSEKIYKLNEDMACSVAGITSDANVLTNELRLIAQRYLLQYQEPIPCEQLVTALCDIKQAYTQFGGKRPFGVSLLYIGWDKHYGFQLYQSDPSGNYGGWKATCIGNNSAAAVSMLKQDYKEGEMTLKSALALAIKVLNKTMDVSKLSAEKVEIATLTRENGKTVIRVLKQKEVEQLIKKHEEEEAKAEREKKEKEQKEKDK
Protocol: as §1, §2, §3, §4

[10] = molecular target: T10, proteins displaced from immobilized biotin-Cmpd 1 pulldowns (U2OS cell lysate) (Homo sapiens, UniProt Q8NBJ5); conditions: GN=COLGALT1 (Q8NBJ5)
T10 construct: endogenous in cells; host or cells: U2OS
Protocol: as §1, §2, §3, §4

**Q.** Which Difference ([1]; Cmpd minus DMSO, -LOG(P-value) 0.760368) does the source give for `Cn1c2c(c(=N)c3c1CCC3)CCC2` [Compound 1, 4-methyl-2,3,4,5,6,7-hexahydrodicyclopenta[b,e]pyridin-8(1H)-imine] here?
**A.** Its Difference is 0.5453.

**Q.** What about the “iBAQ Cmpd” value ([1]; replicates 1-3) of the same compound?
**A.** Its value is 19.0033 and 19.8581 and 19.0089.

**Q.** And the Difference ([2]; Cmpd minus DMSO, -LOG(P-value) 0.946138)?
**A.** Its Difference is 1.759.

**Q.** And the “iBAQ Cmpd” value ([2]; replicates 1-3)?
**A.** The value was 20.2891 and 19.4609 and 19.6711.

**Q.** What about the Difference ([3]; Cmpd minus DMSO, -LOG(P-value) 1.15166) of the same compound?
**A.** The Difference was -2.41.

**Q.** What about the “iBAQ Cmpd” value ([3]; replicates 1-3) of the same compound?
**A.** Its value is 15.9988 and 17.3288 and 14.7232.

**Q.** What about the Difference ([4]; Cmpd minus DMSO, -LOG(P-value) 0.80089) of the same compound?
**A.** The Difference was 1.298.

**Q.** And the “iBAQ Cmpd” value ([4]; replicates 1-3)?
**A.** Its value is 17.9419 and 17.334 and 17.0379.

**Q.** And the Difference ([5]; Cmpd minus DMSO, -LOG(P-value) 0.711634)?
**A.** Its Difference is 0.8419.

**Q.** And the “iBAQ Cmpd” value ([5]; replicates 1-3)?
**A.** The value was 20.3934 and 20.6157 and 19.9486.

**Q.** What about the Difference ([6]; Cmpd minus DMSO, -LOG(P-value) 1.66704) of the same compound?
**A.** Its Difference is 2.667.

**Q.** And the “iBAQ Cmpd” value ([6]; replicates 1-3)?
**A.** Its value is 18.8001 and 17.2488 and 16.5904.

**Q.** What about the Difference ([7]; Cmpd minus DMSO, -LOG(P-value) 0.938202) of the same compound?
**A.** Its Difference is -0.8112.

**Q.** And the “iBAQ Cmpd” value ([7]; replicates 1-3)?
**A.** The value was 21.4277 and 21.5751 and 21.8529.

**Q.** What about the Difference ([8]; Cmpd minus DMSO, -LOG(P-value) 1.19354) of the same compound?
**A.** The Difference was -0.7441.

**Q.** What about the “iBAQ Cmpd” value ([8]; replicates 1-3) of the same compound?
**A.** The value was 16.0313 and 15.2476 and 15.6479.

**Q.** And the Difference ([9]; Cmpd minus DMSO, -LOG(P-value) 1.07686)?
**A.** The Difference was -2.957.

**Q.** And the “iBAQ Cmpd” value ([9]; replicates 1-3)?
**A.** Its value is 18.482 and 14.8891 and 15.1338.

**Q.** What about the Difference ([10]; Cmpd minus DMSO, -LOG(P-value) 0.726003) of the same compound?
**A.** The Difference was 1.872.

**Q.** What about the “iBAQ Cmpd” value ([10]; replicates 1-3) of the same compound?
**A.** The value was 17.5569 and 16.2606 and 16.9957.
